Assay results taken from article PMC2229492 (The Journal of General Physiology, 2000).
Numbering of substitutions follows the chain as printed.

How the values were obtained:
[1] = target: T1, rat olfactory CNG (OLF) channel (Rattus norvegicus, UniProt Q00195, W332Y); assay: inside-out patch recording, cGMP dose-response; assay type: cell-based
T1 sequence (Q00195 1-664 W332Y): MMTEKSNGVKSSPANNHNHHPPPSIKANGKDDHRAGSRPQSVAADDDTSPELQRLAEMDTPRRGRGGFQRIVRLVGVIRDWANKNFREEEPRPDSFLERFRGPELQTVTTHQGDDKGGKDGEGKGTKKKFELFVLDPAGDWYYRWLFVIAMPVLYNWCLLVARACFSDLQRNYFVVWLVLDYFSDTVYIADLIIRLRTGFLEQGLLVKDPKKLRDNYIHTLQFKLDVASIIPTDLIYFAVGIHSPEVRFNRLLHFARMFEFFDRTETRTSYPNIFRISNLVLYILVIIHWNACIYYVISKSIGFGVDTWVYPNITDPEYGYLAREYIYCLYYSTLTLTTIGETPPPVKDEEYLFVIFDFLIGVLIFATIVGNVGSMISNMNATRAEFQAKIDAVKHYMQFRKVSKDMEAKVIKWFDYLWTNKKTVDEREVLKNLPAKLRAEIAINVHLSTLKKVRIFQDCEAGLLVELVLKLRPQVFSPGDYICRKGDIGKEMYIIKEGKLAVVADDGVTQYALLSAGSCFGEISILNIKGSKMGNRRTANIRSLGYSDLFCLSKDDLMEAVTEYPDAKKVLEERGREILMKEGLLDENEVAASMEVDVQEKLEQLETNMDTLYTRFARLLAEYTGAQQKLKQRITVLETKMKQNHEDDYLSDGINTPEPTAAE

[2] = target: T2, rat olfactory CNG (OLF) channel (Rattus norvegicus, UniProt Q00195); assay: inside-out patch recording, cGMP dose-response; assay type: cell-based
T2 sequence (Q00195 1-664): T1 sequence (Q00195 1-664 W332Y) with Y332W

Nc1nc2c(ncn2[C@@H]2O[C@@H]3COP(=O)(O)O[C@H]3[C@H]2O)c(=O)[nH]1 [cGMP] gave an EC50 [1] of 17.7 µM and an EC50 [2] of 2.47 µM.
